Here are results for ten compounds from ChEMBL document CHEMBL5579899, “Discovery and In Vivo Exploration of 1,3,4-Oxadiazole and α-Fluoroacrylate Containing IL-17 Inhibitors” (J Med Chem, 2024).

The IC50 is the midpoint of a concentration-inhibition curve. A word on the solubility: it is the concentration that dissolves in the medium under given conditions. Read a high solubility as a readily soluble substance. Broadly, the Papp A→B is how fast a substance crosses the layer from the apical side. The term logD denotes the decadic logarithm of the distribution of all forms, ionised or not, between an organic phase and buffer at a given pH. Higher therefore signals a more lipophilic compound.

Converted amounts (≈) assume the structure as drawn.

Series [1] can be described thus: Inhibition of IL-6 production in IL-17/TNF-alpha stimulated human NHDF cells incubated for 24 hrs by ELISA. Particulars: 24 h. It counts as functional, cell-based. A general note: An ELISA detects its analyte on a solid surface through an enzyme-linked reagent.
A short description of series [2]: Equilibrium solubility of compound […] at pH 6.8 by high-throughput analysis. It counts as physicochemical.
Series [3] in a line: Apparent permeability coefficient of the compound across apical to basolateral side in dog MDCK cells by high-throughput analysis. It counts as ADME, cell-based, Canis lupus familiaris.
Series [4] is described as follows: Inhibition of biotinylated human IL-17A/AF647-labeled human IL-17RA protein-protein interaction preincubated for 30 mins with compound followed by addition of AF647-labeled human IL-17RA incubated for 90 min by TR-FRET assay.
The nature of series [5]: Metabolic stability in rat liver microsomes assessed as intrinsic clearance. Particulars: read-out: CLH. It counts as ADME, Microsome.
Series [6] can be described thus: Metabolic stability in human liver microsomes assessed as intrinsic clearance. Type of series: ADME, Microsome. Conditions: read-out: CLH. (In general: Liver microsomes are a subcellular fraction often used to study metabolism.)
The nature of series [7]: Lipophilicity, logD of compound at pH 7.4. Conditions: buffer. Type of series: physicochemical.

`COC[C@H](c1cnn2cc([C@@H](Nc3ncc(C4CC4)o3)C3CCC(F)(F)CC3)nc2c1)N1C[C@@H](C(F)(F)F)NC1=O`: the figures for the 50% inhibitory concentration (IC50) in series [1] and in series [4] were 64 nM and 80 nM, respectively. The solubility in series [2] came out at 270 µM (≈ 158 µg/mL). Besides, the apical-to-basolateral permeability (Papp A→B) in series [3] came to 17 ×10⁻⁶ cm/s. Also, the microsomal CLint is over 1000 µL/min/mg in series [5] and 261 µL/min/mg in series [6]. This compound had a log distribution coefficient (logD) in series [7] of over 4.7.
Regarding `COC[C@H](c1cnn2cc([C@@H](Nc3nnc(C)o3)C3CCC(F)(F)CC3)nc2c1)N1C[C@@H](C(F)(F)F)NC1=O`, the values for the half-inhibitory concentration (IC50) in series [1] and in series [4] were 49 nM and 85 nM, respectively. This compound yielded a solubility in series [2] of over 750 µM. Further, the Papp A→B in series [3] turned out to be 0.5 ×10⁻⁶ cm/s. The microsomal CLint was found to be 28 µL/min/mg in series [5] and 23 µL/min/mg in series [6]. The logD in series [7] stood at 1.9.
For `C/C=C(\F)C(=O)N[C@H](c1cn2ncc([C@@H](COC)N3C[C@@H](C(F)(F)F)NC3=O)cc2n1)C1CCC(F)(F)CC1`, the IC50 in series [1] was 7 nM; in series [4], 19 nM. The compound further showed a solubility in series [2] of 700 µM (≈ 394 µg/mL). Also, in series [3], the Papp A→B was 9.7 ×10⁻⁶ cm/s. In addition, the microsomal CLint was 166 µL/min/mg in series [5] and 90 µL/min/mg in series [6]. Moreover, in series [7], the logD was 3.
On to `COC[C@H](c1cnn2cc([C@@H](Nc3noc(C(C)(F)F)n3)C3CCC(F)(F)CC3)nc2c1)N1C[C@@H](C(F)(F)F)NC1=O`, for which the IC50 in series [1] amounted to 27 nM; in series [4], 30 nM. In series [2], this compound had a solubility of 130 µM (≈ 79.1 µg/mL). In series [3], the Papp A→B is 20 ×10⁻⁶ cm/s. For the same compound, the microsomal CLint was 33 µL/min/mg in series [5] and 49 µL/min/mg in series [6]. This compound yielded a log distribution coefficient (logD) in series [7] of 3.7.
Consider `COC[C@H](c1cnn2cc([C@@H](Nc3cc(C)on3)C3CCC(F)(F)CC3)nc2c1)N1C[C@@H](C(F)(F)F)NC1=O`, for which the figures for the IC50 in series [1] and in series [4] were 75 nM and 62 nM, respectively. Moreover, the solubility in series [2] is 600 µM (≈ 335 µg/mL). Further, the Papp A→B in series [3] came to 3.3 ×10⁻⁶ cm/s. Moreover, the results for the microsomal CLint in series [5] and in series [6] were 156 µL/min/mg and 42 µL/min/mg, respectively. The logD in series [7] was 2.9.
Take `COC[C@H](c1cnn2cc([C@@H](Nc3nc(C(C)(F)F)no3)C3CCC(F)(F)CC3)nc2c1)N1C[C@@H](C(F)(F)F)NC1=O`: the IC50 in series [1] stood at 107 nM; in series [4] it was 116 nM. The solubility in series [2] came out at 200 µM (≈ 122 µg/mL). The apparent permeability from apical to basolateral (Papp A→B) in series [3] came to 9.7 ×10⁻⁶ cm/s. Besides, the microsomal CLint in series [5] and in series [6] was 18 µL/min/mg throughout. This compound also displayed a logD in series [7] of 3.5.
For the compound `COC[C@H](c1cnn2cc([C@@H](Nc3nnc(C)n3C)C3CCC(F)(F)CC3)nc2c1)N1C[C@@H](C(F)(F)F)NC1=O`, the half-inhibitory concentration (IC50) in series [1] came to 2690 nM; in series [4], 1820 nM. This compound had a solubility in series [2] of over 750 µM. For the same compound, the Papp A→B in series [3] was determined as 0.4 ×10⁻⁶ cm/s. Besides, the microsomal CLint in series [5] was determined as 13 µL/min/mg; in series [6], 18 µL/min/mg. The compound further returned a log distribution coefficient (logD) in series [7] of 1.5.
As for `COC[C@H](c1cnn2cc([C@@H](Nc3nnc(C(F)(F)F)o3)C3CCC(F)(F)CC3)nc2c1)N1C[C@@H](C(F)(F)F)NC1=O`, the IC50 in series [1] is 15 nM; in series [4], 25 nM. This compound came in with a solubility in series [2] of 270 µM (≈ 165 µg/mL). The Papp A→B in series [3] was 8 ×10⁻⁶ cm/s. The microsomal CLint in series [5] is under 25 µL/min/mg; in series [6], under 10 µL/min/mg. Further, in series [7], the logD stood at 3.4.
`COC[C@H](c1cnn2cc([C@@H](Nc3cc(OC)ncn3)C3CCC(F)(F)CC3)nc2c1)N1C[C@@H](C(F)(F)F)NC1=O`: the IC50 in series [1] stood at 493 nM; in series [4] it was 735 nM. This compound returned a solubility in series [2] of 700 µM (≈ 409 µg/mL). For the same compound, the apical-to-basolateral permeability (Papp A→B) in series [3] worked out at 11 ×10⁻⁶ cm/s. Further, the microsomal CLint came out at 77 µL/min/mg in series [5] and 31 µL/min/mg in series [6]. In addition, the logD in series [7] stood at 3.2.
Take `COC[C@H](c1cnn2cc([C@@H](Nc3nnc(C)s3)C3CCC(F)(F)CC3)nc2c1)N1C[C@@H](C(F)(F)F)NC1=O`: the IC50 in series [1] turned out to be 45 nM; in series [4], 61 nM. This compound also yielded a solubility in series [2] of 610 µM (≈ 350 µg/mL). Further, in series [3], the Papp A→B is 1.3 ×10⁻⁶ cm/s. Further, the microsomal CLint amounted to 75 µL/min/mg in series [5] and 50 µL/min/mg in series [6]. For the same compound, the log distribution coefficient (logD) in series [7] came to 2.5.
